Laboratory results taken from patent publication US20260137698A1, “CYCLIN-DEPENDENT KINASE 7 INHIBITORS” (JOINT STOCK COMPANY «BIOCAD», priority 2022, published 2026).

Columns and labels:
CDK9/Cyclin K = CDK9/Cyclin K (Homo sapiens, UniProt P50750); test: Inhibition of CDK9/Cyclin K kinase activity (ADP-Glo); format: biochemical; settings: mean value from several measurements; read-out: IC50 CDK9/Cyclin K
Description: (§1) Measurements were carried out in a 5 μl reaction volume using a 384-well plate (Corning Inc., order no. 4513). The analyzed substances were titrated from 50 μM in increments of 4 at 11 concentration points in a normal strength kinase buffer A (Thermo Fisher Scientific Inc, cat. no. PV3189) supplemented with DTT (Sigma, orde. no. 646563-10X.5ML) and prepared with water (Panreac, order no. 701074). Kinase was diluted in an analogous buffer, mixed with test compounds in plate wells and preincubated for 10 minutes at 25° C. Following incubation, a mixture of reaction substrate (CDKtide (SignalChem, order no. C06-58) or Histone H1 (SignalChem, order no. H10-54N) or PDKtide (SignalChem, order no. P10-58) and ATP (SignalChem, order no. V915B) prepared on a normal strength kinase buffer A was added. 1% solution of dimethyl sulfoxide (DMSO) (Sigma-Aldrich, order no. D2438) in the reaction volume was used as a negative control. The final concentrations of all reaction components are shown in Table 5. The plate was centrifuged at 400 rcf (Eppendorf, 5804 R) for 1 minute and incubated for 40-60 minutes at 25° C. The amount of ATP consumed in the kinase reaction was then measured using the ADP-Glo™ detection system. Luminescence signal was measured using Spark 20M tablet multifunction reader (Tecan Group Ltd, Switzerland). IC50 value was calculated using Magellan 7.2 (Tecan Group Ltd, Switzerland) by approximating experimental points by four-parameter model with the optimization by Levenberg-Marquardt:
(§2) [formula] • where A is the upper asymptote; D is the lower asymptote; C is IC50, half-maximal inhibitory concentration of kinase, nM; B is the curvature (slope).

[1] = test system: MDA-MB-468 (triple negative breast cancer); test: Antiproliferative assay on MDA-MB-468 cells (AlamarBlue, 96 h); format: cell-based; settings: Homo sapiens, mean value from several measurements
Description: The antiproliferative activity of CDK7 inhibitors according to the present invention was evaluated in a cell test using continuous cell cultures: MDA-MB-468 (triple negative breast cancer, ATCC® HTB-132™) and NCl-H82 (small cell lung cancer, ATCC® HTB-175™) using a viable AlamarBlue dye (Thermo Fisher Scientific Inc, order no. DAL1100). The cells were grown in DMEM (PanEco, order no. C330π) and RPMI-1640 (PanEco, order no. C330π), respectively. The basal growth medium was enriched with L-glutamine at a concentration of 2 mM (PanEco, order no. Φ032) and 10% fetal bovine serum (Gibco, order no. 16140-071). The night before measurement, MDA-MB-468 adherent cells were detached from plastic with a solution of trypsin-EDTA (PanEco, order no. Π039π), the solution was then inactivated by a DMEM complete medium, centrifuged at 1000 RPM (Eppendorf, 5804 R), a suspension of cells was prepared in a DMEM complete medium, introduced into 96-well culture plates (Corning Inc, order no. 3599) at 8×10^3 cells in 100 μl of medium per well. The next day, test compounds were dissolved in DMSO and diluted with a DMEM complete medium to a final concentration ranging from 50 μM to 10 pM. Diluted compounds in a volume of 50 μl were introduced into the plate wells with cells in triplicates (the final concentration of DMSO was no more than 1%) and incubated at 37° C. in an incubator with 5% CO2 for 96 hours. NCl-H82 suspension cell line was prepared on the day of the analysis. 10×10^3 cells in 100 μl of an RPMI-1640 complete medium were added to each well of a 96-well plate. The procedure for sample dilution is as described above. Cells with test compounds were incubated at 37° C. in an incubator with 5% CO2 for 120 hours. Following incubation, […] of AlamarBlue reagent (Thermo Fisher Scientific Inc., order no. DAL1100) was added to the wells, the contents of the plates were stirred in an orbital shaker (Biosan, Latvia), then further incubated for 5.5-6 hours at 37° C. in an incubator with 5% CO2. The number of viable cells was detected using the Infinite M200Pro microplate spectrophotometer (Tecan Group Ltd, Switzerland) by way of measuring a fluorescent signal at an excitation wavelength (λEx) of 540 nm and an emission wavelength (λEm) of 590 nm.
IC50 value was calculated using the Magellan software (Tecan Group Ltd, Switzerland) by approximating experimental points by four-parameter model with the optimization by Levenberg-Marquardt: […]

CDK7/Cyclin H/MNAT1 = CDK7/Cyclin H/MNAT1 (Homo sapiens, UniProt P50613); test: Inhibition of CDK7/Cyclin H/MNAT1 kinase activity (ADP-Glo); format: biochemical; settings: mean value from several measurements; read-out: IC50 CDK7/Cyclin H/MNAT
Chain of CDK7/Cyclin H/MNAT1 (P50613 whole entry): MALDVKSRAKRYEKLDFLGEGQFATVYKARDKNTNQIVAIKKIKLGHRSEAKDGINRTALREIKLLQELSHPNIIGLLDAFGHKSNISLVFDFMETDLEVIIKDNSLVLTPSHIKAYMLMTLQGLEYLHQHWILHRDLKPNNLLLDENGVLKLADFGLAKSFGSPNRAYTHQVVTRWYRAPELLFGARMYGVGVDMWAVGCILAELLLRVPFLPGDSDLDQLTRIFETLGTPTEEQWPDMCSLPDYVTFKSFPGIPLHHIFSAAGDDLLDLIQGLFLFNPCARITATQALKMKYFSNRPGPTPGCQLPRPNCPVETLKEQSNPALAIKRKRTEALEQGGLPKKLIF
Chain of CDK7/Cyclin H/MNAT1 (P51946 whole entry partner): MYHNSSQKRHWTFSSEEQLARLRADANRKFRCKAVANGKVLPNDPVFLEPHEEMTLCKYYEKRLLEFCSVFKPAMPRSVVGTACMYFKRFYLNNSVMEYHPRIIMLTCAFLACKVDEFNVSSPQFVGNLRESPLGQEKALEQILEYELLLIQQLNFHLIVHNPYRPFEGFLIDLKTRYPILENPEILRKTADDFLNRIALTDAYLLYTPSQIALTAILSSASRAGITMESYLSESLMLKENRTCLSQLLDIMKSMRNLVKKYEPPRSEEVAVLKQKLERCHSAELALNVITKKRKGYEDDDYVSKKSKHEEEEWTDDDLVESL
Chain of CDK7/Cyclin H/MNAT1 (P51948 whole entry partner): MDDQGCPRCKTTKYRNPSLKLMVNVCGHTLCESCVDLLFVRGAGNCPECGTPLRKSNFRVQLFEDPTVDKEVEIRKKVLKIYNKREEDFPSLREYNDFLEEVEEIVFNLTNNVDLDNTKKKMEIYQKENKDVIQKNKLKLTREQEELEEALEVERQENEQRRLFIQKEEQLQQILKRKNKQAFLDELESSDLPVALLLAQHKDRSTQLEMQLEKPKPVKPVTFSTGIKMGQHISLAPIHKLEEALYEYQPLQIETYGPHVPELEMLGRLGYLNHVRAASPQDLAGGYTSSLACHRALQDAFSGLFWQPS
Description: as §1, §2

[2] = General cytotoxicity on primary differentiated HepaRG cells (72 h); format: cell-based; settings: human, general toxicity, mean value from several measurements
Excerpt: General cytotoxicity of CDK7 inhibitors according to the present invention was investigated using primary differentiated HepaRG cells (Biopredic Int, order no. HPR101). A week before the measurement, the cells were thawed and maintained in Basal hepatic cell medium (Biopredic Int, order no. MIL700079) supplemented with HepaRG maintenance/metabolism medium supplement with antibiotics (Biopredic Int, order no. ADD620C). The medium in vials with cells was changed every 2-3 days. The night before the test, the cells were plated in wells of 96-well plates (Corning Inc., order no. 3599) at 25×10^3 cells in 100 μl of medium per well. The next day, test compounds were introduced into plate wells with cells, untitrated at a concentration ranging from 200 μM to 0.2 nM, and incubated for 72 hours. Cell viability was assessed as described above.

[3] = Passive membrane permeability through PAMPA artificial membrane, pH 7.4; format: in vitro ADME; settings: pH 7.4, 10 μmol, 20 hours at room temperature, mean of multiple measurements, read-out: PAMPA passive permeability Pe
Description: Passive membrane permeability of the compounds described in the present invention was determined using the PAMPA (parallel artificial membrane permeability assay) model at pH 7.4.
We used a 96-well plate (Corning® BioCoat® Pre-coated PAMPA Plate System, order no. 353015), composed of acceptor and donor parts with cell membrane-modeling PVDF filter pre-impregnated with a lecithin-phospholipid bilayer. The substance (at a concentration of 10 μmol) in a 0.01 M phosphate buffer with pH 7.4 was introduced into a donor well of the plate, and pure buffer was introduced into an acceptor well; afterwards, the both parts were combined and incubated for 20 hours at room temperature so that the compound was redistributed between the two wells and the membrane. Verapamil (USP, USA, order no. 1711202) and propranolol (MCE LLC, USA, cat. no. HY-B0573/CS-2680) were used as control compounds with high and medium permeability. Samples were analyzed by reversed-phase HPLC with UV detection (Agilent 1260 chromatograph with UV detector) by determining their peak areas in the donor and acceptor wells.
Permeability (Pe, cm/s) and retention factor (R, %) in the lipid bilayer were calculated using the formula:
[formula] [formula] • Co is donor-well concentration of the substance at the initial moment of time t (μM); • CA (t) is acceptor-well concentration of the substance at time t (μM); • Vd is donor-well volume (0.3 ml); • Va is acceptor-well volume (0.15 ml).
[formula] • A is filter area (0.3 cm^2); • t is incubation time (72000 s);

CDK2/Cyclin A = CDK2/Cyclin A (Homo sapiens, UniProt P24941); test: Inhibition of CDK2/Cyclin A kinase activity (ADP-Glo); format: biochemical; settings: mean value from several measurements; read-out: IC50 CDK2/Cyclin A
Description: as §1, §2

Chain of CDK9/Cyclin K (P50750 whole entry): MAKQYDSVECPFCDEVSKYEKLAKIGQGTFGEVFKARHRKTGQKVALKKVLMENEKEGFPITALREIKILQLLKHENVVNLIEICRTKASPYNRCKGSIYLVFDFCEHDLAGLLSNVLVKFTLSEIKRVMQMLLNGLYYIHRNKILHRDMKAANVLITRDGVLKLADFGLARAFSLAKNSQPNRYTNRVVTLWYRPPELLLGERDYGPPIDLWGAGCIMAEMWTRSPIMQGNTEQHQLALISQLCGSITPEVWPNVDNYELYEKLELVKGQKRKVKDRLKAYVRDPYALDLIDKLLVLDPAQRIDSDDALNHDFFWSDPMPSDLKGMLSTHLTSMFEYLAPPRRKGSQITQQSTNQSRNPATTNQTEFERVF
Chain of CDK9/Cyclin K (O75909 whole entry partner): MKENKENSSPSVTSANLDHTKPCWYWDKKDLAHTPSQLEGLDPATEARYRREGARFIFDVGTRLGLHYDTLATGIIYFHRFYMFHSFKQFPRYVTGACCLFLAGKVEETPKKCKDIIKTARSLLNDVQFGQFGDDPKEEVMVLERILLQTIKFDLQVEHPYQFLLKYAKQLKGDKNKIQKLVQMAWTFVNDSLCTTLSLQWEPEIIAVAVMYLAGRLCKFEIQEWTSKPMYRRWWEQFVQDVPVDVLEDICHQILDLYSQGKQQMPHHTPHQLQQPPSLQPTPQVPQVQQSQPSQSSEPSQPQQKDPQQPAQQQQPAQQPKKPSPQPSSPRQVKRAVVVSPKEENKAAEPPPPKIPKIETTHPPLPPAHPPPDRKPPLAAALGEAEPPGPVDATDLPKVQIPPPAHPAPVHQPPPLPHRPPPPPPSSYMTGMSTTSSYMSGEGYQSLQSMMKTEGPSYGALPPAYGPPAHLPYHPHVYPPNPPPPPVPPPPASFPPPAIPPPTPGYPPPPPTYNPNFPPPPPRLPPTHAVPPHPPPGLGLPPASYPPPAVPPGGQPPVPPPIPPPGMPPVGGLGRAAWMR

| Structure (SMILES) | IC50 (CDK9/Cyclin K) [nM] | IC50 [1] [nM] | IC50 (CDK7/Cyclin H/MNAT1) [nM] | Papp at 20 h, 10 μmol [3] [×10⁻⁶ cm/s] | IC50 (CDK2/Cyclin A) [nM] | CC50 at 72 h [2] [nM] |
| --- | --- | --- | --- | --- | --- | --- |
| FC(F)(F)c1cnc(N[C@H]2CCCNC2)nc1-c1c[nH]c(-c2ccccc2)c1 [CDK7_533, 4-(5-phenyl-1H-pyrrol-3-yl)-N-[(3S)-piperidin-3-yl]-5-(trifluoromethyl) pyrimidin-2-amine] | > 200 | 100 to 1000 | 50 to 200 | < 1 | > 200 | 500 to 2000 |
| Cc1ccc(P(C)(C)=O)c(Nc2nc(N[C@H]3CCCNC3)ncc2C(F)(F)F)c1 [CDK7_903, N4-[2-(dimethylphos-phoryl)-5-methylphenyl]-N2-[(3S)-piperidin-3-yl]-5-(trifluoromethyl) pyrimidine-2,4-diamine] | > 200 | – | 5 to 50 | < 1 | > 200 | – |
| CN(C)C(=O)c1nc(-c2nc(N[C@H]3CCCNC3)ncc2C(F)(F)F)c[nH]1 [CDK7_966, N,N-dimethyl-4-(2-{[(3S)-piperidin-3-yl]amino}-5-(trifluoromethyl)py-rimidin-4-yl)-1H-imidazole-2-carboxamide] | > 200 | 100 to 1000 | 5 to 50 | – | > 200 | > 2000 |
| FC(F)(F)c1cnc(N[C@H]2CCCNC2)nc1-c1cc[nH]c1 [CDK7_972, N-[(3S)-piperidin-3-yl]-4-(1H-pyrrol-3-yl)-5-(trifluoromethyl)py-rimidin-2-amine] | 50 to 200 | 100 to 1000 | 5 to 50 | – | > 200 | 500 to 2000 |
| CN(Cc1ccccc1)C(=O)c1cc(-c2nc(N[C@H]3CCCNC3)ncc2C(F)(F)F)c[nH]1 [CDK7_998, N-benzyl-N-methyl-4-(2-{[(3S)-piperidin-3-yl]amino}-5-(trifluoromethyl)pyrimidin-4-yl)-1H-pyrrole-2-carboxamide] | > 200 | > 1000 | 5 to 50 | – | > 200 | > 2000 |
| CN(C(=O)c1cc(-c2nc(N[C@H]3CCCNC3)ncc2C(F)(F)F)c[nH]1)c1nccs1 [CDK7_1003, N-methyl-4-(2-{[(3S)-piperidin-3-yl]amino}-5-(trifluoromethyl)pyrimidin-4-yl)-N-(1,3-thiazol-2-yl)-1H-pyrrole-2-carboxamide] | 50 to 200 | 100 to 1000 | 5 to 50 | – | > 200 | 500 to 2000 |
| CN1CCC(=O)c2c(-c3nc(N[C@H]4CCCNC4)ncc3C(F)(F)F)c[nH]c2C1=O [CDK7_1021, 7-methyl-3-(2-{[(3S)-piperidin-3-yl]amino}-5-(trifluoromethyl)py-rimidin-4-yl)-1H,4H,5H,6H,7H, 8H-pyrrolo[2,3-c]azepine-4,8-dione] | > 200 | – | 5 to 50 | < 1 | 5 to 50 | > 2000 |
| O=c1c2[nH]cc(-c3nc(N[C@H]4CCCNC4)ncc3C(F)(F)F)c2ccn1C1CCOCC1 [CDK7_1121] | – | – | – | < 1 | – | > 2000 |

Now from value to molecule, other results behind:

| IC50 (CDK9/Cyclin K) [nM] | IC50 [1] [nM] | IC50 (CDK7/Cyclin H/MNAT1) [nM] | Papp at 20 h, 10 μmol [3] [×10⁻⁶ cm/s] | IC50 (CDK2/Cyclin A) [nM] | Structure (SMILES) | CC50 at 72 h [2] [nM] |
| --- | --- | --- | --- | --- | --- | --- |
| 5 to 50 | 10 to 100 | < 5 | 1 to 5 | > 200 | CN(C)C(=O)c1cc(-c2nc(N[C@H]3CCCNC3)ncc2C(F)(F)F)c[nH]1 [CDK7_536, N,N-dimethyl-4-(2-{[(3S)-piperidin-3-yl]amino}-5-(trifluoromethyl)pyrimidin-4-yl)-1H-pyrrole-2-carboxamide] | 500 to 2000 |
| – | 100 to 1000 | 5 to 50 | 5 to 10 | > 200 | FC(F)(F)c1cnc(N[C@H]2CCCNC2)nc1-n1nnc2ccccc21 [CDK7_811, 4-(1H-1,2,3-benzotriazol-1-yl)-N-[(3S)-piperidin-3-yl]-5-(trifluoromethyl)py-rimidin-2-amine] | 500 to 2000 |
| 50 to 200 | > 1000 | 5 to 50 | – | > 200 | O=C(NC1CCC(O)CC1)c1cc(-c2nc(N[C@H]3CCCNC3)ncc2C(F)(F)F)c[nH]1 (stereo partly drawn) [CDK7_851, N-(4-hydroxycyclo-hexyl)-4-(2-{[(3S)-piperidin-3-yl]amino}-5-(trifluoromethyl)pyrimidin-4-yl)-1H-pyrrole-2-carboxamide] | > 2000 |
| 50 to 200 | 100 to 1000 | 5 to 50 | – | > 200 | O=C(NCc1ccccc1)c1cc(-c2nc(N[C@H]3CCCNC3)ncc2C(F)(F)F)c[nH]1 [CDK7_997, N-benzyl-4-(2-{[(3S)-piperidin-3-yl]amino}-5-(trifluoromethyl)pyrimidin-4-yl)-1H-pyrrole-2-carboxamide] | 500 to 2000 |
| 5 to 50 | 100 to 1000 | < 5 | – | > 200 | CN(C(=O)c1cc(-c2nc(N[C@H]3CCCNC3)ncc2C(F)(F)F)c[nH]1)C1CC1 [CDK7_1001, N-cyclopropyl-N-methyl-4-(2-{[(3S)-piperidin-3-yl]amino}-5-(trifluoromethyl)pyrimidin-4-yl)-1H-pyrrole-2-carboxamide] | 500 to 2000 |
